Source: PubChem BioAssay (NCI)
Several values for one entry are separate records, joined by “and”; a condition that tells them apart may be missing. Equal values may be shown once.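 Compound exposure: 48 hours, 5 concentrations, 96-well plates. GI50: concentration for 50% inhibition of growth. Definition used: TGI = concentration required for complete inhibition of growth.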

Key:
Assay in all cases: NCI tumour cell line growth inhibition, 48 h
M14 melanoma = test system: M14 melanoma
TK-10 renal = test system: TK-10 renal
UACC-62 melanoma = test system: UACC-62 melanoma
U251 CNS = test system: U251 CNS
HOP-18 NSCLC = test system: HOP-18 NSCLC
HOP-62 NSCLC = test system: HOP-62 NSCLC
OVCAR-5 ovarian = test system: OVCAR-5 ovarian
CCRF-CEM leukemia = test system: CCRF-CEM leukemia
SN12C renal = test system: SN12C renal
SW-620 colon = test system: SW-620 colon
786-0 renal = test system: 786-0 renal
SNB-78 CNS = test system: SNB-78 CNS
DMS 273 small cell lung = test system: DMS 273 small cell lung
HOP-92 NSCLC = test system: HOP-92 NSCLC
OVCAR-8 ovarian = test system: OVCAR-8 ovarian
HT29 colon = test system: HT29 colon
NCI-H522 lung = test system: NCI-H522 lung
EKVX NSCLC = test system: EKVX NSCLC
KM20L2 colon = test system: KM20L2 colon
SK-OV-3 ovarian = test system: SK-OV-3 ovarian
LXFL 529 NSCLC = test system: LXFL 529 NSCLC
SNB-19 CNS = test system: SNB-19 CNS
SF-539 CNS = test system: SF-539 CNS
HCT-15 colon = test system: HCT-15 colon
UACC-257 melanoma = test system: UACC-257 melanoma
KM12 colon = test system: KM12 colon
M19-MEL melanoma = test system: M19-MEL melanoma
MALME-3M melanoma = test system: MALME-3M melanoma
COLO 205 colon = test system: COLO 205 colon
CAKI-1 renal = test system: CAKI-1 renal
NCI-H460 lung = test system: NCI-H460 lung
HCC-2998 colon = test system: HCC-2998 colon
SF-295 CNS = test system: SF-295 CNS
NCI-H23 lung = test system: NCI-H23 lung
K-562 leukemia = test system: K-562 leukemia
SK-MEL-5 melanoma = test system: SK-MEL-5 melanoma
HCT-116 colon = test system: HCT-116 colon
XF 498 CNS = test system: XF 498 CNS
A549 NSCLC = test system: A549 NSCLC
UO-31 renal = test system: UO-31 renal
ACHN renal = test system: ACHN renal
SK-MEL-28 melanoma = test system: SK-MEL-28 melanoma
OVCAR-4 ovarian = test system: OVCAR-4 ovarian
SF-268 CNS = test system: SF-268 CNS
IGROV1 ovarian = test system: IGROV1 ovarian
NCI-H226 lung = test system: NCI-H226 lung
SK-MEL-2 melanoma = test system: SK-MEL-2 melanoma
DLD-1 colon = test system: DLD-1 colon
OVCAR-3 ovarian = test system: OVCAR-3 ovarian
RXF 393 renal = test system: RXF 393 renal
MOLT-4 leukemia = test system: MOLT-4 leukemia
RXF-631 renal = test system: RXF-631 renal
SNB-75 CNS = test system: SNB-75 CNS
RPMI-8226 leukemia = test system: RPMI-8226 leukemia
LOX IMVI melanoma = test system: LOX IMVI melanoma
HL-60(TB) leukemia = test system: HL-60(TB) leukemia
A498 renal = test system: A498 renal
SR leukemia = test system: SR leukemia

Cn1cc(NC(=O)c2cc(NC(=O)CCCCCCCCC(=O)Nc3cc(C(=O)Nc4cc(C(=O)NCCC(N)N)n(C)c4)n(C)c3)cn2C)cc1C(=O)NCCC(=N)N gave a TGI (M14 melanoma) of 66.3 µM, a TGI (TK-10 renal) of 38.9 µM and a TGI (UACC-62 melanoma) of 60.1 µM. The TGI (U251 CNS) was 36.8 µM, the TGI (HOP-18 NSCLC) was 47.2 µM and the TGI (HOP-62 NSCLC) was 59.4 µM. It also gave a TGI (OVCAR-5 ovarian) of 45.3 µM, a TGI (CCRF-CEM leukemia) of 49.3 µM and a TGI (SN12C renal) of 68.9 µM. For the same compound, the TGI (SW-620 colon) was 44.9 µM, the TGI (786-0 renal) was 47.1 µM and the TGI (SNB-78 CNS) was 93.1 µM. For the same compound, the TGI (DMS 273 small cell lung) was 55.8 µM, the TGI (HOP-92 NSCLC) was 65.2 µM and the TGI (OVCAR-8 ovarian) was 52.4 µM. The TGI (HT29 colon) was 49.7 µM, the TGI (NCI-H522 lung) was 79.2 µM and the TGI (EKVX NSCLC) was 48.1 µM. The TGI (KM20L2 colon) was 44 µM, the TGI (SK-OV-3 ovarian) was 78.7 µM and the TGI (LXFL 529 NSCLC) was 76.9 µM. It also gave a TGI (SNB-19 CNS) of 62.5 µM, a TGI (SF-539 CNS) of 54.4 µM and a TGI (HCT-15 colon) of over 100 µM. It also gave a TGI (UACC-257 melanoma) of 57 µM, a TGI (KM12 colon) of 63.4 µM and a TGI (M19-MEL melanoma) of 66 µM. It also gave a TGI (MALME-3M melanoma) of 15.5 µM, a TGI (COLO 205 colon) of over 100 µM and a TGI (CAKI-1 renal) of 49.7 µM. The TGI (NCI-H460 lung) was 62 µM, the TGI (HCC-2998 colon) was 52 µM and the TGI (SF-295 CNS) was 74.8 µM. The TGI (NCI-H23 lung) was over 100 µM, the TGI (K-562 leukemia) was 40.9 µM and the TGI (SK-MEL-5 melanoma) was 30.2 µM. The TGI (HCT-116 colon) was 55.3 µM, the TGI (XF 498 CNS) was 66.8 µM and the TGI (A549 NSCLC) was 40 µM. It also gave a TGI (UO-31 renal) of 56.9 µM, a TGI (ACHN renal) of 36.5 µM and a TGI (SK-MEL-28 melanoma) of 43.2 µM. It also gave a TGI (OVCAR-4 ovarian) of over 100 µM, a TGI (SF-268 CNS) of 66.1 µM and a TGI (IGROV1 ovarian) of 74.4 µM. For the same compound, the TGI (NCI-H226 lung) was 70.7 µM, the TGI (SK-MEL-2 melanoma) was 49.3 µM and the TGI (DLD-1 colon) was 73.9 µM. The TGI (OVCAR-3 ovarian) was 74.5 µM, the TGI (RXF 393 renal) was 43.2 µM and the TGI (MOLT-4 leukemia) was 49.1 µM. It also gave a TGI (RXF-631 renal) of 71.2 µM, a TGI (SNB-75 CNS) of 55.3 µM and a TGI (RPMI-8226 leukemia) of 28.6 µM. The TGI (LOX IMVI melanoma) was over 100 µM.
Compound CCOc1ccc(/C=C\c2cc(OC)c(OC)c(OC)c2)cc1 has a TGI (M14 melanoma) of over 100 µM, a TGI (TK-10 renal) of over 100 µM and a TGI (UACC-62 melanoma) of over 100 µM. For the same compound, the TGI (U251 CNS) was 0.0132 µM and 0.0341 µM, the GI50 (HOP-18 NSCLC) was over 100 µM and the TGI (HOP-18 NSCLC) was over 100 µM. The TGI (HL-60(TB) leukemia) was 0.00354 µM and 0.0155 µM, the TGI (OVCAR-5 ovarian) was 61.7 µM and the TGI (CCRF-CEM leukemia) was 91.3 µM. The TGI (SN12C renal) was 60.5 µM, the TGI (SW-620 colon) was over 100 µM and the TGI (786-0 renal) was over 100 µM. For the same compound, the TGI (A498 renal) was 0.0248 µM, the TGI (SNB-78 CNS) was over 100 µM and the TGI (HOP-92 NSCLC) was 0.0512 µM. The TGI (EKVX NSCLC) was over 100 µM, the TGI (KM20L2 colon) was 0.00113 µM and the TGI (SF-539 CNS) was 0.000685 µM. For the same compound, the GI50 (HCT-15 colon) was 0.0322 µM, the TGI (HCT-15 colon) was 0.286 µM and the TGI (UACC-257 melanoma) was 98.6 µM. The GI50 (KM12 colon) was 0.0172 µM, the TGI (KM12 colon) was 0.185 µM and the TGI (M19-MEL melanoma) was over 100 µM. It also gave a TGI (COLO 205 colon) of 0.399 µM, a TGI (CAKI-1 renal) of 18.6 µM and a TGI (SF-295 CNS) of 0.000209 µM. The TGI (NCI-H23 lung) was 0.111 µM, the TGI (K-562 leukemia) was over 100 µM and the TGI (SK-MEL-5 melanoma) was 0.117 µM. It also gave a TGI (HCT-116 colon) of 0.152 µM, a TGI (XF 498 CNS) of 0.0917 µM and a TGI (A549 NSCLC) of over 100 µM. For the same compound, the TGI (ACHN renal) was over 100 µM, the TGI (SK-MEL-28 melanoma) was over 100 µM and the GI50 (OVCAR-4 ovarian) was 0.403 µM. For the same compound, the TGI (OVCAR-4 ovarian) was over 100 µM, the TGI (SF-268 CNS) was over 100 µM and the GI50 (IGROV1 ovarian) was 0.0317 µM. For the same compound, the TGI (IGROV1 ovarian) was over 100 µM, the TGI (NCI-H226 lung) was 0.0223 µM and 0.024 µM and the GI50 (DLD-1 colon) was 0.0292 µM. For the same compound, the TGI (DLD-1 colon) was over 100 µM, the TGI (RXF 393 renal) was 0.000904 µM and the TGI (MOLT-4 leukemia) was 17.8 µM. For the same compound, the TGI (RXF-631 renal) was over 100 µM, the TGI (SNB-75 CNS) was 0.000226 µM and the TGI (RPMI-8226 leukemia) was 5.03 µM. For the same compound, the TGI (LOX IMVI melanoma) was over 100 µM.
COC1CC(OC2C(C)OC(OC3C(C)OC(OC4CCC5(C)C(=CCC6(O)C5CC(OC(=O)c5ccc(O)cc5)C5(C)C(O)(C(C)=O)CCC65O)C4)CC3OC)CC2OC)OC(C)C1O (configuration not stated) (tested in a mixture with another compound) gave a TGI (TK-10 renal) of over 100 µM, a TGI (UACC-62 melanoma) of 52.7 µM and a TGI (U251 CNS) of 57.5 µM. The TGI (HOP-18 NSCLC) was over 100 µM, the TGI (HL-60(TB) leukemia) was 46.9 µM and the TGI (HOP-62 NSCLC) was over 100 µM. For the same compound, the TGI (SR leukemia) was 76.5 µM, the TGI (OVCAR-5 ovarian) was over 100 µM and the TGI (CCRF-CEM leukemia) was 92.7 µM. For the same compound, the TGI (SN12C renal) was over 100 µM, the TGI (SW-620 colon) was over 100 µM and the TGI (786-0 renal) was 57.1 µM. The TGI (SNB-78 CNS) was 57.2 µM, the TGI (DMS 273 small cell lung) was over 100 µM and the TGI (HOP-92 NSCLC) was 59.5 µM. It also gave a TGI (OVCAR-8 ovarian) of 82.5 µM, a TGI (HT29 colon) of over 100 µM and a TGI (EKVX NSCLC) of over 100 µM. The TGI (SK-OV-3 ovarian) was over 100 µM, the TGI (LXFL 529 NSCLC) was 78.4 µM and the TGI (SNB-19 CNS) was over 100 µM. The TGI (SF-539 CNS) was 72.6 µM, the TGI (HCT-15 colon) was over 100 µM and the TGI (UACC-257 melanoma) was 51.3 µM. It also gave a TGI (M19-MEL melanoma) of over 100 µM, a TGI (MALME-3M melanoma) of 74.6 µM and a TGI (COLO 205 colon) of 55.3 µM. For the same compound, the TGI (NCI-H460 lung) was over 100 µM, the TGI (HCC-2998 colon) was 60.5 µM and the TGI (SF-295 CNS) was over 100 µM. For the same compound, the TGI (NCI-H23 lung) was 81.6 µM, the TGI (XF 498 CNS) was 9.05 µM and the TGI (A549 NSCLC) was over 100 µM. It also gave a TGI (UO-31 renal) of 75 µM, a TGI (ACHN renal) of over 100 µM and a TGI (SK-MEL-28 melanoma) of over 100 µM. For the same compound, the TGI (SF-268 CNS) was over 100 µM, the TGI (IGROV1 ovarian) was over 100 µM and the TGI (NCI-H226 lung) was over 100 µM. The TGI (SK-MEL-2 melanoma) was 45.3 µM, the TGI (DLD-1 colon) was over 100 µM and the TGI (OVCAR-3 ovarian) was 57.2 µM. For the same compound, the TGI (RXF 393 renal) was over 100 µM, the TGI (MOLT-4 leukemia) was 82.2 µM and the TGI (RXF-631 renal) was over 100 µM. It also gave a TGI (SNB-75 CNS) of over 100 µM, a TGI (RPMI-8226 leukemia) of 95.8 µM and a TGI (LOX IMVI melanoma) of 34.8 µM.
